{"source": "patent US20120035112A1", "about": "“NEURONAL DIFFERENTIATION-INDUCING PEPTIDE AND USE THEREOF” (Toagosei Co., Ltd., priority 2009, published 2012)"}
{"tested_on": "mouse neuronal stem cells", "assay": "Evaluation of neuronal differentiation-inducing activities of synthesized peptides (β3-tubulin fluorescence antibody method, DAPI nuclear stain)", "type": "cell-based", "details": "peptide 0.5 μM, 7 days culture in mouse neuronal stem cell growth medium; compared with positive control (differentiation medium, FIG. 16)", "experimental": "The neuronal differentiation-inducing activities of the synthesized peptides obtained in Example 1 (Samples 1 to 15) were examined.\nThat is, the sample peptide was added to a culture broth of neuronal stem cells collected from a mouse (mouse neuronal stem cell growth medium, a product of Cell Applications), and incubated. Addition was carried out to a concentration of 0.5 μM for each peptide.\nNext, once 7 days had elapsed following peptide addition, each of the cultured cells was nuclear stained with DAPI (4′,6-diamidino-2-phenylindole) and examined with a fluorescence microscope. In addition, evaluation with a neuronal differentiation induction marker was carried out on the same samples. That is, using tubulin (specifically, β3-tubulin) as the marker for identifying neurons (nerve cells), the presence of tubulin (i.e., the presence or absence of neurons) within the culture solution was checked by a fluorescence antibody method using a fluorochrome-labeled anti-tubulin antibody for tubulin identification. The number of each figure corresponds to the number of the sample peptide used.\nEach of these figures is a fluorescence micrograph (image) obtained by examining the state of neuronal differentiation by mouse neuronal stem cells following addition of the respective sample peptides and 7 days of culturing. The image was prepared by merging a DIC image, a DAPI nuclear stain image, and a fluorescence image showing the results of an investigation by an immune antibody method using fluorochrome-labeled anti-tubulin antibody.\n(§1) As a positive control, mouse neuronal stem cells were cultured in a mouse neuronal stem cell differentiation medium (product of Cell Applications) without adding any of the peptides. When 7 days had elapsed following the start of culturing, treatment and fluorescence microscopic examination were carried out in the same way as described above.\nas §1, with “negative” for “positive”, “[…]” for “differentiation”"}
{"sequence": "LALLLLAAWTVRAGKKRTLRKNDRKKR [Sample 6]", "neuronal differentiation-inducing activity": "particularly high neuronal differentiation-inducing activities"}
{"sequence": "LLLLAAWTVRAGKKRTLRKNDRKKR [Sample 8]", "neuronal differentiation-inducing activity": "particularly high neuronal differentiation-inducing activities"}
{"sequence": "ALLLLAAWTVRAGKKRTLRKNDRKKR [Sample 7]", "neuronal differentiation-inducing activity": "particularly high neuronal differentiation-inducing activities"}
{"sequence": "LLLLAAWTARAGKKRTLRKNDRKKR [Sample 2]", "neuronal differentiation-inducing activity": "particularly high neuronal differentiation-inducing activities"}
